Assay [1] is described as follows: cells. It is filed as functional, cell-based.
Assay [2] can be described thus: cells. The class given is functional, cell-based. This is another data set of the same source.
Another assay addresses Protein Tat (Human immunodeficiency virus type 1 group M subtype B (isolate HXB2)(HIV-1), UniProt P04608). It is filed as functional.
The target of assay [3] is Mitogen-activated protein kinase 10 (Homo sapiens, UniProt P53779). The experiment in a line: Dose response biochemical screening assay for inhibitors of c-Jun N-Terminal Kinase 3 (JNK3). [Related pubchem assays: 746 ].
Sequence of Mitogen-activated protein kinase 10 (P53779 whole entry): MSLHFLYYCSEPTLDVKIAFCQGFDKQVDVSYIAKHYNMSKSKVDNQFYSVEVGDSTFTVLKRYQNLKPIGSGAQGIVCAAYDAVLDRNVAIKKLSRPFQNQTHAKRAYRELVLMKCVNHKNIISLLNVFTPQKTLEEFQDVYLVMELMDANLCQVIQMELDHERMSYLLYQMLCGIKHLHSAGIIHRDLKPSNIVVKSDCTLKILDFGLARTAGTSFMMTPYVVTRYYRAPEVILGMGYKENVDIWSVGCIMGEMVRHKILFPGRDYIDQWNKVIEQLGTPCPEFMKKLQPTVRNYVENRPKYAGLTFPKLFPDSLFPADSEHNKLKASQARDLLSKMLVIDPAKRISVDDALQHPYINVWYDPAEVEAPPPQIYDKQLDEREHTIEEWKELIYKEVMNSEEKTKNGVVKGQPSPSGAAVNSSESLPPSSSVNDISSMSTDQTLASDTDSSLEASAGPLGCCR
The target in assay [4] is T1, Heat shock factor protein 1 (Mus musculus, UniProt P38532).
T1 sequence (P38532 whole entry): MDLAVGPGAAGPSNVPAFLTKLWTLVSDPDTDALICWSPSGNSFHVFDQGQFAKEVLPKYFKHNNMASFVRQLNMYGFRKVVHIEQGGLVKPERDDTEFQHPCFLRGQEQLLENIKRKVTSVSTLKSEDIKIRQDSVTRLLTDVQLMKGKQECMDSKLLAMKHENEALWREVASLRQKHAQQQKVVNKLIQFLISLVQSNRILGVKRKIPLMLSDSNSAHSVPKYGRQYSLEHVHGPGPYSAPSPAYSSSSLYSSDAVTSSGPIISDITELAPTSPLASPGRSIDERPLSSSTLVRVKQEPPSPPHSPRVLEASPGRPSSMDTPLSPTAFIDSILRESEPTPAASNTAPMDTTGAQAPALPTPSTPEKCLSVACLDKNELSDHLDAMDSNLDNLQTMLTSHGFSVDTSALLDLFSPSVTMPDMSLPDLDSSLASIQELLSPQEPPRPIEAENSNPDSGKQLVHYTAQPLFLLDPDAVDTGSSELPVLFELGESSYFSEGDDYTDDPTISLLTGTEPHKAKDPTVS
In words: decrease of HSF1-responsive luciferase luminescence – cell-based, NIH3T3, dose retest, confirmation (AID 2382).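 Note: NIH3T3 fibroblasts with HSF1-driven luciferase reporter stressed by proteasome inhibitor MG132; luminescence from HSF1-driven luciferase expression after 8 hours of MG132 stress.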 It is filed as functional.

Assay [5] in a line: Trypanosoma cruzi growth suppression in host cells – NIH3T3 host cells, beta-gal luminescence, confirmation (AID 2044).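 Note: intracellular parasites grown in NIH/3T3 mouse fibroblasts as host cells; luminescent beta-galactosidase reporter signal from transgenic T. cruzi replicating inside host cells; inhibitors lower the luminescence signal.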 The class given is functional, cell-based.
A short description of assay [6]: microbe, parasite or virus in culture. It is filed as functional. The settings on record: Mycobacterium tuberculosis.
The nature of assay [7]: NIH3T3 cell viability loss – ATP luminescence, mouse fibroblasts, counter-screen, dose response (AID 2010).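 Note: cells exposed to compound for about 90 hours before reading.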 It is filed as functional, cell-based.
In assay [8] the target is Heat shock protein HSP 90-alpha (Homo sapiens, UniProt P07900). In words: Luminescence-based dose response biochemical high throughput screening assay for inhibitors of the Heat Shock Protein 90 (HSP90). [Related pubchem assays: 1831 (Summary AID.), 1846 (Confirmation screen.), 1789 (Primary screen.)].
The nature of assay [9]: THP-1 cell cytotoxicity, dose response, cytotoxicity control for non-replicating M. tuberculosis project (AID 489025). The class given is functional.
The nature of assay [10]: cells. It is filed as functional.
A short description of assay [11]: HIV-1 Vif–A3G interaction blockers – biochemical, TR-FRET, GST-Vif 1-94, biotin-A3G peptide, dose response retest, primary screen (AID 1117319).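 Note: TR-FRET signal of purified GST-Vif binding a biotinylated A3G peptide; inhibitors lower the FRET signal by blocking Vif and A3G binding.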 It is filed as functional.
Assay [12] in a line: viability loss in Vero cells – cytotoxicity control for Vif-APOBEC3G degradation inhibitor project, dose response (AID 1117358). The class given is functional. The settings on record: Vero.
A further assay concerns the target T2, Aminopeptidase N (Plasmodium falciparum FcB1/Columbia, UniProt O96935).
T2 sequence (O96935 whole entry): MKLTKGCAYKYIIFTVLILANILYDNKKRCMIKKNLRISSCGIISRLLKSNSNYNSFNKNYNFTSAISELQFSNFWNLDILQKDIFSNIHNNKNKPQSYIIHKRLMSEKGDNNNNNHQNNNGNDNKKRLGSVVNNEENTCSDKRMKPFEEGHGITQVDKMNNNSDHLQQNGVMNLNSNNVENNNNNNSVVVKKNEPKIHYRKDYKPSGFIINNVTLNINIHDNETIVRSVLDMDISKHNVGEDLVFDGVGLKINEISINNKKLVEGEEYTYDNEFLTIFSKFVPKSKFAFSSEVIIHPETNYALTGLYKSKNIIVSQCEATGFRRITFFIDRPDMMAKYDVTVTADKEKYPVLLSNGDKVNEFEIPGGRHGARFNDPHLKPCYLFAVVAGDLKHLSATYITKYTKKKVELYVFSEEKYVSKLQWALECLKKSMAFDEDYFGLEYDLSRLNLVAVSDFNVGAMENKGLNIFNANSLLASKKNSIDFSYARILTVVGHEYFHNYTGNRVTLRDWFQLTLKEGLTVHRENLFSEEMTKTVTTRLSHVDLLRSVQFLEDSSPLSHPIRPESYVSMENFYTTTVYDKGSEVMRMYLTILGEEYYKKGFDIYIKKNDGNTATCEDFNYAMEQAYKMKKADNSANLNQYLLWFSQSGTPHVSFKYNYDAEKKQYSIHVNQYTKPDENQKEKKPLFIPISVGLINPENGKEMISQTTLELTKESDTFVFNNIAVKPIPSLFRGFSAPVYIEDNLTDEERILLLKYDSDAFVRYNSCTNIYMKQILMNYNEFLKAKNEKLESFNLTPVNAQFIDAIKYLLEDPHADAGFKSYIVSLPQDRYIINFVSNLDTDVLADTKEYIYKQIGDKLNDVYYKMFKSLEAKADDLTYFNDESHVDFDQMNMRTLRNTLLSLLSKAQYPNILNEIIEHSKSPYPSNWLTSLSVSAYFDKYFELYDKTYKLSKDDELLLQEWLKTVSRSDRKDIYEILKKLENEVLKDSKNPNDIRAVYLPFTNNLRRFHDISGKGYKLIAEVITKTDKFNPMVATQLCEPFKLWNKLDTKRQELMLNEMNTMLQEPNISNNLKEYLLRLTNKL
In words: malaria alanyl aminopeptidase activity blockers – biochemical, fluorogenic H-Leu-NHMec substrate, 1536-well (AID 1445). Also on record: species or system Plasmodium falciparum 3D7, 3D7.

For the next assay, the target named is Large T antigen (Simian virus 40, UniProt P03070). The class given is functional, Betapolyomavirus macacae.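 Note: Confirmatory-stage PubChem screen for compounds that inhibit SV40 T antigen.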
Sequence of Large T antigen (P03070 whole entry): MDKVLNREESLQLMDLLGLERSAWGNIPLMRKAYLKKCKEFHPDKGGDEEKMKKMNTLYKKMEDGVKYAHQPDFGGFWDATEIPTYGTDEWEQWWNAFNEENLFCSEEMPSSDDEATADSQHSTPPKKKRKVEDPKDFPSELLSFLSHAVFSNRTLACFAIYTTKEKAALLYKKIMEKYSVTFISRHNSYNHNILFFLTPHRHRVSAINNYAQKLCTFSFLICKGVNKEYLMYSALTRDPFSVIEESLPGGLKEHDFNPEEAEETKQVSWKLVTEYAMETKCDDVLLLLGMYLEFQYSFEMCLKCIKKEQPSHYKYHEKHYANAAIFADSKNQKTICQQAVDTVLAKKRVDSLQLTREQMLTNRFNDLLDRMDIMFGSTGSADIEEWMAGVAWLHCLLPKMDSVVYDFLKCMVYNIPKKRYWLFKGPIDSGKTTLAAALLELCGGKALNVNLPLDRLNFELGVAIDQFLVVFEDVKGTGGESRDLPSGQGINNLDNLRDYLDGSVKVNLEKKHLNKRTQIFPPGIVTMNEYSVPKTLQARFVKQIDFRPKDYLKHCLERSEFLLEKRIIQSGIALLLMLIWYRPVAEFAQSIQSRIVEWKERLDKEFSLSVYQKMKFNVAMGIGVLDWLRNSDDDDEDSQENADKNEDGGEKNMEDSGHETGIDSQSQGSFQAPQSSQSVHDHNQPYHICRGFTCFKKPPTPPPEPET
In the next assay the target is Nonstructural protein 1 (Influenza A virus, UniProt Q194T2). The class given is functional, Influenza A virus (A/California/07/2009(H1N1)).
Sequence of Nonstructural protein 1 (Q194T2 whole entry): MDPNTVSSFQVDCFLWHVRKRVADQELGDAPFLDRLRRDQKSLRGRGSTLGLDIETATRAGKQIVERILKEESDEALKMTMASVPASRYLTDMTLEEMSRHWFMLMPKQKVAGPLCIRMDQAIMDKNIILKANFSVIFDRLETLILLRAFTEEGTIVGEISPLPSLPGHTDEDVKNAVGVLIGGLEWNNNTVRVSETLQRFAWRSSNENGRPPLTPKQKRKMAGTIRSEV
The target of assay [13] is T3, Replicative DNA helicase DnaB (Mycobacterium tuberculosis, UniProt P9WMR3).
T3 sequence (P9WMR3 whole entry): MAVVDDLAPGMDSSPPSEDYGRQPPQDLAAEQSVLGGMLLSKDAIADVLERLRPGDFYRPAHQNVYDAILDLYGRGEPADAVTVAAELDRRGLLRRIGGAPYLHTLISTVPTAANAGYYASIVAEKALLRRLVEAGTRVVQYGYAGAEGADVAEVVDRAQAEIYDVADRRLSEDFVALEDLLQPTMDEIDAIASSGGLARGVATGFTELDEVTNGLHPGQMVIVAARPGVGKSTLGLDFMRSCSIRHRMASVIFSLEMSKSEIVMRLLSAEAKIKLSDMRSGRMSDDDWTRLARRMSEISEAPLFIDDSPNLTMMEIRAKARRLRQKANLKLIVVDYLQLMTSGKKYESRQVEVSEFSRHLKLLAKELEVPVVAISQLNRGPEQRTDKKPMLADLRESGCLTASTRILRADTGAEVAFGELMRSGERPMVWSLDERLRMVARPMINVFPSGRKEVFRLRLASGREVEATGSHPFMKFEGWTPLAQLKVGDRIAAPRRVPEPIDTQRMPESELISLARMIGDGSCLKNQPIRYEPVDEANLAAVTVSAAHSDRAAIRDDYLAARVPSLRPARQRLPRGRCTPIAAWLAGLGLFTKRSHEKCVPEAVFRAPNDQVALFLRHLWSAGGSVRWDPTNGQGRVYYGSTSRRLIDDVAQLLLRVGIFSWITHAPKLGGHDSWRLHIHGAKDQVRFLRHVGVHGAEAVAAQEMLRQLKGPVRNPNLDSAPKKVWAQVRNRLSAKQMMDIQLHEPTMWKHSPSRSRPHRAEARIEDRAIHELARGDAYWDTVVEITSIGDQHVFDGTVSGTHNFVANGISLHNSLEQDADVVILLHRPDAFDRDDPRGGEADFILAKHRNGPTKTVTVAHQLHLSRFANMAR
The experiment in a line: DnaB intein splicing inhibitors, dose response, biochemical, cell-free fluorescence (AID 449749). It is filed as functional.

In another assay the target is T4, Protein RecA (Mycobacterium tuberculosis, UniProt P9WHJ3).
T4 sequence (P9WHJ3 whole entry): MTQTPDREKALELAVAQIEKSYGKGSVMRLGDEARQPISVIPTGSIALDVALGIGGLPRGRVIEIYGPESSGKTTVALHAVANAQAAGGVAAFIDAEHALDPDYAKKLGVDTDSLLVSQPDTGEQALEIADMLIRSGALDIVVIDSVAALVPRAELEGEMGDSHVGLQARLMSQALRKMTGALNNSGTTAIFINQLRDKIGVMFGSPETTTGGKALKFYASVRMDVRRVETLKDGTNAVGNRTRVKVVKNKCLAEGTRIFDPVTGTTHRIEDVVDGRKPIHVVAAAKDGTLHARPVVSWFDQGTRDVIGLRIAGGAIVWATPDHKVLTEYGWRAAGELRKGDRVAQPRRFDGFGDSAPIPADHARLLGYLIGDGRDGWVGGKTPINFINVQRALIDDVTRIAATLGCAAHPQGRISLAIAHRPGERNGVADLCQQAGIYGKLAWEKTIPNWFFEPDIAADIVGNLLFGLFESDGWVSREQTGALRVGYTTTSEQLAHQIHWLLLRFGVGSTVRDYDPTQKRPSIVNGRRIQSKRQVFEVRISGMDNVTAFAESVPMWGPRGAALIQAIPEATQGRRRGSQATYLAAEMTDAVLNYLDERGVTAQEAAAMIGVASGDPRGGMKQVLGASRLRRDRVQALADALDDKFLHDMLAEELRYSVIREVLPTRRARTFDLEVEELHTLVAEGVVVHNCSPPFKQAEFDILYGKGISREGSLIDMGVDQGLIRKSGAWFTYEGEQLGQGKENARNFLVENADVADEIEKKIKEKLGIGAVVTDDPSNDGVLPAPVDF
The experiment in a line: Fluorescence Cell-Free Homogeneous Dose Retest to Identify Inhibitors of RecA-Intein Splicing Activity. [Related pubchem assays (depositor defined):AID2097, AID2223, AID489010, AID492950]. The class given is functional.

The target of assay [14] is 26S proteasome non-ATPase regulatory subunit 14 (Homo sapiens, UniProt O00487). The experiment in a line: inhibition of proteasome subunit RPN11 – biochemical, fluorescence polarization, uHTS hits, confirmation (AID 602368). The class given is functional.
Sequence of 26S proteasome non-ATPase regulatory subunit 14 (O00487 whole entry): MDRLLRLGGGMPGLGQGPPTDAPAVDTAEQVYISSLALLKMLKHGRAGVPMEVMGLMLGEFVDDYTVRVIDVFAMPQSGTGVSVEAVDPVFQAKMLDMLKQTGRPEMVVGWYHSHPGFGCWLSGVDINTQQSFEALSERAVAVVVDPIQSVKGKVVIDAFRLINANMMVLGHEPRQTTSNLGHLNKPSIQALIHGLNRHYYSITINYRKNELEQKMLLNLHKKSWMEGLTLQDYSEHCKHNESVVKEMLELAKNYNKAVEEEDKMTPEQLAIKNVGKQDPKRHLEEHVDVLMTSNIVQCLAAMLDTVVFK
Assay [15] addresses 72 kDa type IV collagenase (Homo sapiens, UniProt P08253). In words: Dose Response validation of uHTS RPN11 inhibitor hits using a MMP-2 Fluorescence assay. The class given is functional.
A further assay concerns the target Prothrombin (Bos taurus, UniProt P00735). The experiment in a line: thrombin protease inhibitors – biochemical, fluorescence polarization, uHTS hits, dose response (AID 602369). The class given is functional.
Assay [16] deals with Matrix metalloproteinase-14 (Homo sapiens, UniProt P50281). In words: Dose Response confirmation of uHTS hits for a small molecule inhibitors of MT1-MMP activation in a fluorescence assay set 1. The class given is functional.
A short description of assay [17]: viability loss in THP-1 monocytes – THP-1 cells, cytotoxicity control for Vif-APOBEC3G degradation inhibitor project, dose response (AID 1117359). It is filed as functional. The conditions noted are these: THP-1.
Assay [18] has as its target T5, Low molecular weight phosphotyrosine protein phosphatase (Homo sapiens, UniProt P24666).
T5 sequence (P24666 whole entry): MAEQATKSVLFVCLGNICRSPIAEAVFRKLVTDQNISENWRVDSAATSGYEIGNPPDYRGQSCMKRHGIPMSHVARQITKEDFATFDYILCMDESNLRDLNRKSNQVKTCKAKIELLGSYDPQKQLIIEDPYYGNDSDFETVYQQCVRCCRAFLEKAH
In words: inhibition of LMPTP-A enzymatic activity – biochemical, OMFP substrate, fluorescence intensity, set 2, dose response (AID 743307). It is filed as functional.

For assay [19], the target named is T5, Low molecular weight phosphotyrosine protein phosphatase. In words: inhibition of human LMPTP enzyme activity – biochemical, absorbance, pNPP substrate, LMPTP-A isoform, set 2, orthogonal assay, dose response (AID 743308). It is filed as functional.

Active and inactive are the calls of the source.

Six molecules from ChEMBL document CHEMBL1201862, “PubChem BioAssay data set” (2004) can be followed below.

Sequence of 72 kDa type IV collagenase (P08253 whole entry): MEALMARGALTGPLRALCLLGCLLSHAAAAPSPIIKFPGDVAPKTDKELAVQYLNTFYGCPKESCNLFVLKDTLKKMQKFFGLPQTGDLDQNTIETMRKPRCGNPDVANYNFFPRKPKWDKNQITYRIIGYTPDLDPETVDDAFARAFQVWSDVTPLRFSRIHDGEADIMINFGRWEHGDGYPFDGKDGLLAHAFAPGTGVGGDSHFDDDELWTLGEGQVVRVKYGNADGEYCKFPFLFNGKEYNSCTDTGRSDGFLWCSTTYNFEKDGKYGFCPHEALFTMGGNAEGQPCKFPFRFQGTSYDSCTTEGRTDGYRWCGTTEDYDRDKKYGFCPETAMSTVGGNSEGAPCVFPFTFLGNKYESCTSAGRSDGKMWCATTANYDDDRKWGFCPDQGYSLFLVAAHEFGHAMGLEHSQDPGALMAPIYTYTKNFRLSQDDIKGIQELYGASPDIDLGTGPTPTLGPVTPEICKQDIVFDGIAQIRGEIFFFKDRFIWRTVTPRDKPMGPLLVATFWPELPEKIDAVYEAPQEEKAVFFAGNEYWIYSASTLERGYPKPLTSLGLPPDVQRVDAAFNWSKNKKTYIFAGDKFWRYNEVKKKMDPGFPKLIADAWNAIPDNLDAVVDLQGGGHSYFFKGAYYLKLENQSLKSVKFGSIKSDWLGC
Sequence of Protein Tat (P04608 whole entry): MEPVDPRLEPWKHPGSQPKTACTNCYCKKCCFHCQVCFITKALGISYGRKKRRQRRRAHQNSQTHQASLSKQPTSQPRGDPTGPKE

For `COC(=O)/C(=C(/F)SCC(C)=O)C(F)(F)F`, the EC50 in the assay “cells [1]” and in “cells [2]” was > 350 µM (not active) throughout. For the same molecule, the IC50 on Protein Tat was > 100 µM (active).

Consider `COc1ccc(CC(=O)Nc2nc(C)cs2)cc1OC`, for which the 50% inhibitory concentration (IC50) in assay [3] is recorded as 27.9 µM (not active).

In the case of `COc1cccc(-c2cc3nc4c(c(NCC(C)(C)CN(C)C)n3n2)CCCC4)c1`, the EC50 in assay [4] is 0.775 µM (active); in [5], 0.487 µM (active); in assay [7], > 60 µM (not active). The CC50 is 34.2 µM (active) in assay [6] and 28.9 µM (active) in assay [9]. Besides, the concentration for half-maximal inhibition (IC50) was 2.39 µM (active) in [8] and 19.2 µM (active) in the assay “cells [10]”.

`CCCNC(=O)c1ccc2c(c1)C1C3CCC(C3)C1C(c1ccccc1)N2` (stereo not given): in [11], the IC50 was > 100 µM (active). Moreover, the CC50 in [12] is > 40 µM (active).

With `CCN(CC)c1ccc(/C=C2\C(=O)N(c3nnc(C)c(O)n3)N=C2C)cc1`, the concentration for half-maximal inhibition (IC50) is 42.6 µM (active) on Aminopeptidase N; 54.1 µM (active) at Large T antigen; 12.6 µM (active) on Nonstructural protein 1; 49.4 µM (active) in assay [14]; 96 µM (active) in [15]; 49.9 µM (active) at Prothrombin. The IC50 in assay [16] is 32.8 µM (inactive). Further, the AC50 in assay [13] is 6.6 µM (active). Moreover, the EC50 at Protein RecA is 2.08 µM (active). In assay [17], the CC50 is 25.6 µM (active).

Turning to `Cc1ccc2nc(-c3ccccc3)cc(NCCCN3CCCCC3)c2c1`, the IC50 in assay [18] and in assay [19] was > 80 µM (inactive) throughout.
